Experimental data from US20170050957A1, “4-AMINO-6-(HETEROCYCLIC)PICOLINATES AND 6-AMINO-2-(HETEROCYCLIC)PYRIMIDINE-4-CARBOXYLATES AND THEIR USE AS HERBICIDES” (Dow AgroSciences LLC, priority 2013, published 2017).
Read-outs that look alike come from different tables or passages of the source.

What was measured:
[1] = test system: Key Grass and Sedge Weeds as well as Grass Crops; experiment: Post-emergent Test II herbicidal activity (Table 16); assay type: in vivo; settings: post-emergence, 336 h, 14 days after application; for pest or weed control at 35 g/ha: 35 g ai/ha; for pest or weed control at 70 g/ha: 70 g ai/ha; for pest or weed control at 140 g/ha: 140 g ai/ha
Procedure, shortened: (§1)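 Plants at first-second true leaf stage, grown 7-21 d in greenhouse (~15 h photoperiod, 23-29 °C day), were track-sprayed at 187 L/ha with compound in acetone/DMSO/water/isopropanol/crop oil/Triton X-155 at a high rate plus 1/2× to 1/16× dilutions. Injury scored visually after 14 d versus untreated plants, 0 (none) to 100% (complete kill).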

[2] = test system: Key Broadleaf Weed and Crop Species; experiment: Post-emergent Test II herbicidal activity (Table 15); assay type: in vivo; settings: post-emergence, 336 h, 14 d; for pest or weed control at 35 g/ha: 35 g ai/ha; for pest or weed control at 70 g/ha: 70 g ai/ha; for pest or weed control at 140 g/ha: 140 g ai/ha
Procedure, shortened: as §1

[3] = Cyperus esculentus, yellow nutsedge (Cyperus esculentus), read-out: Visual Growth Reduction (%) 14 Days After Application CYPES
[4] = Echinochloa crus-galli, barnyardgrass (Echinochloa crus-galli), read-out: Visual Growth Reduction (%) 14 Days After Application ECHCG
[5] = Oryza sativa, rice (Oryza sativa), read-out: Visual Growth Reduction (%) 14 Days After Application ORYSA
[6] = Setaria faberi, giant foxtail (Setaria faberi), read-out: Visual Growth Reduction (%) 14 Days After Application SETFA
[7] = Triticum aestivum, wheat, spring (Triticum aestivum), read-out: Visual Growth Reduction (%) 14 Days After Application TRZAS
[8] = Zea mays, maize, corn (Zea mays), read-out: Visual Growth Reduction (%) 14 Days After Application ZEAMX
[9] = Abutilon theophrasti, velvetleaf (Abutilon theophrasti), read-out: Visual Growth Reduction (%) 14 Days After Application, ABUTH
[10] = Amaranthus retroflexus, redroot pigweed (Amaranthus retroflexus), read-out: Visual Growth Reduction (%) 14 Days After Application, AMARE
[11] = Brassica napus, oilseed rape, canola (Brassica napus), read-out: Visual Growth Reduction (%) 14 Days After Application, BRSNN
[12] = Chenopodium album, lambsquarters (Chenopodium album), read-out: Visual Growth Reduction (%) 14 Days After Application, CHEAL
[13] = Euphorbia heterophylla, wild poinsettia (Euphorbia heterophylla), read-out: Visual Growth Reduction (%) 14 Days After Application, EPHHL
[14] = Helianthus annuus, sunflower (Helianthus annuus), read-out: Visual Growth Reduction (%) 14 Days After Application, HELAN

With `COC(=O)c1nc(-c2cccc3c2cnn3C)c(F)c(N)c1Cl` [Compound 4.10] the pest or weed control at 35 g/ha [1, 3] was 0 to 29%, the pest or weed control at 70 g/ha [1, 3] was 0 to 29% and the pest or weed control at 140 g/ha [1, 3] was 0 to 29%. For the same compound, the pest or weed control at 35 g/ha [1, 4] was 0 to 29%, the pest or weed control at 70 g/ha [1, 4] was 0 to 29% and the pest or weed control at 140 g/ha [1, 4] was 0 to 29%. The pest or weed control at 35 g/ha [1, 5] was 0 to 29%, the pest or weed control at 70 g/ha [1, 5] was 0 to 29% and the pest or weed control at 140 g/ha [1, 5] was 0 to 29%. For the same compound, the pest or weed control at 35 g/ha [1, 6] was 0 to 29%, the pest or weed control at 70 g/ha [1, 6] was 0 to 29% and the pest or weed control at 140 g/ha [1, 6] was 0 to 29%. The pest or weed control at 35 g/ha [1, 7] was 0 to 29%, the pest or weed control at 70 g/ha [1, 7] was 0 to 29% and the pest or weed control at 140 g/ha [1, 7] was 0 to 29%. For the same compound, the pest or weed control at 35 g/ha [1, 8] was 0 to 29%, the pest or weed control at 70 g/ha [1, 8] was 0 to 29% and the pest or weed control at 140 g/ha [1, 8] was 0 to 29%. For the same compound, the pest or weed control at 35 g/ha [2, 9] was 0 to 29%, the pest or weed control at 70 g/ha [2, 9] was 0 to 29% and the pest or weed control at 140 g/ha [2, 9] was 0 to 29%. For the same compound, the pest or weed control at 35 g/ha [2, 10] was 0 to 29%, the pest or weed control at 70 g/ha [2, 10] was 95 to 100% and the pest or weed control at 140 g/ha [2, 10] was 95 to 100%. The pest or weed control at 35 g/ha [2, 11] was 0 to 29%, the pest or weed control at 70 g/ha [2, 11] was 0 to 29% and the pest or weed control at 140 g/ha [2, 11] was 0 to 29%. The pest or weed control at 35 g/ha [2, 12] was 0 to 29%, the pest or weed control at 70 g/ha [2, 12] was 0 to 29% and the pest or weed control at 140 g/ha [2, 12] was 0 to 29%. For the same compound, the pest or weed control at 35 g/ha [2, 13] was 0 to 29%, the pest or weed control at 70 g/ha [2, 13] was 0 to 29% and the pest or weed control at 140 g/ha [2, 13] was 0 to 29%. For the same compound, the pest or weed control at 35 g/ha [2, 14] was 0 to 29%, the pest or weed control at 70 g/ha [2, 14] was 0 to 29% and the pest or weed control at 140 g/ha [2, 14] was 45 to 59%. For the same compound, the melting point was 170 to 175 °C.
In the case of `COC(=O)c1nc(-c2cccc3cn[nH]c23)c(F)c(N)c1Cl` [Compound 4.13], the pest or weed control at 35 g/ha [1, 3] is reported as 0 to 29%, the pest or weed control at 70 g/ha [1, 3] is reported as 0 to 29% and the pest or weed control at 140 g/ha [1, 3] is reported as 0 to 29%. The pest or weed control at 35 g/ha [1, 4] was 0 to 29%, the pest or weed control at 70 g/ha [1, 4] was 0 to 29% and the pest or weed control at 140 g/ha [1, 4] was 0 to 29%. It also gave a pest or weed control at 35 g/ha [1, 5] of 0 to 29%, a pest or weed control at 70 g/ha [1, 5] of 0 to 29% and a pest or weed control at 140 g/ha [1, 5] of 0 to 29%. The pest or weed control at 35 g/ha [1, 6] was 0 to 29%, the pest or weed control at 70 g/ha [1, 6] was 0 to 29% and the pest or weed control at 140 g/ha [1, 6] was 0 to 29%. The pest or weed control at 35 g/ha [1, 7] was 0 to 29%, the pest or weed control at 70 g/ha [1, 7] was 0 to 29% and the pest or weed control at 140 g/ha [1, 7] was 0 to 29%. It also gave a pest or weed control at 35 g/ha [1, 8] of 0 to 29%, a pest or weed control at 70 g/ha [1, 8] of 0 to 29% and a pest or weed control at 140 g/ha [1, 8] of 0 to 29%. It also gave a pest or weed control at 35 g/ha [2, 9] of 0 to 29%, a pest or weed control at 70 g/ha [2, 9] of 0 to 29% and a pest or weed control at 140 g/ha [2, 9] of 0 to 29%. For the same compound, the pest or weed control at 35 g/ha [2, 11] was 0 to 29%, the pest or weed control at 70 g/ha [2, 11] was 0 to 29% and the pest or weed control at 140 g/ha [2, 11] was 0 to 29%. It also gave a pest or weed control at 35 g/ha [2, 12] of 0 to 29%, a pest or weed control at 70 g/ha [2, 12] of 0 to 29% and a pest or weed control at 140 g/ha [2, 12] of 60 to 74%. The pest or weed control at 35 g/ha [2, 13] was 0 to 29%, the pest or weed control at 70 g/ha [2, 13] was 0 to 29% and the pest or weed control at 140 g/ha [2, 13] was 0 to 29%. It also gave a pest or weed control at 35 g/ha [2, 14] of 0 to 29%, a pest or weed control at 70 g/ha [2, 14] of 0 to 29% and a pest or weed control at 140 g/ha [2, 14] of 0 to 29%. For the same compound, the melting point was 207 to 210 °C.
With `COC(=O)c1nc(-c2ccc3scnc3c2)c(F)c(N)c1Cl` [Compound 6.01, Methyl 4-amino-6-(benzo[d]thiazol-5-yl)-3-chloro-5-fluoropicolinate] the pest or weed control at 35 g/ha [1, 3] was 45 to 59%, the pest or weed control at 70 g/ha [1, 3] was 45 to 59% and the pest or weed control at 140 g/ha [1, 3] was 45 to 59%. For the same compound, the pest or weed control at 35 g/ha [1, 4] was 0 to 29%, the pest or weed control at 70 g/ha [1, 4] was 45 to 59% and the pest or weed control at 140 g/ha [1, 4] was 60 to 74%. For the same compound, the pest or weed control at 35 g/ha [1, 5] was 0 to 29%, the pest or weed control at 70 g/ha [1, 5] was 0 to 29% and the pest or weed control at 140 g/ha [1, 5] was 0 to 29%. For the same compound, the pest or weed control at 35 g/ha [1, 6] was 0 to 29%, the pest or weed control at 70 g/ha [1, 6] was 0 to 29% and the pest or weed control at 140 g/ha [1, 6] was 0 to 29%. It also gave a pest or weed control at 35 g/ha [1, 7] of 0 to 29%, a pest or weed control at 70 g/ha [1, 7] of 0 to 29% and a pest or weed control at 140 g/ha [1, 7] of 0 to 29%. It also gave a pest or weed control at 35 g/ha [1, 8] of 0 to 29%, a pest or weed control at 70 g/ha [1, 8] of 0 to 29% and a pest or weed control at 140 g/ha [1, 8] of 0 to 29%. It also gave a pest or weed control at 35 g/ha [2, 9] of 85 to 94%, a pest or weed control at 70 g/ha [2, 9] of 85 to 94% and a pest or weed control at 140 g/ha [2, 9] of 85 to 94%. For the same compound, the pest or weed control at 35 g/ha [2, 10] was 85 to 94%, the pest or weed control at 70 g/ha [2, 10] was 95 to 100% and the pest or weed control at 140 g/ha [2, 10] was 95 to 100%. The pest or weed control at 35 g/ha [2, 11] was 95 to 100%, the pest or weed control at 70 g/ha [2, 11] was 95 to 100% and the pest or weed control at 140 g/ha [2, 11] was 95 to 100%. For the same compound, the pest or weed control at 35 g/ha [2, 12] was 95 to 100%, the pest or weed control at 70 g/ha [2, 12] was 95 to 100% and the pest or weed control at 140 g/ha [2, 12] was 95 to 100%. For the same compound, the pest or weed control at 35 g/ha [2, 13] was 0 to 29%, the pest or weed control at 70 g/ha [2, 13] was 85 to 94% and the pest or weed control at 140 g/ha [2, 13] was 95 to 100%. The pest or weed control at 35 g/ha [2, 14] was 85 to 94%, the pest or weed control at 70 g/ha [2, 14] was 85 to 94% and the pest or weed control at 140 g/ha [2, 14] was 85 to 94%. The melting point was 216 °C.
